US7250295B2 (Board of Trustees of Michigan State University, priority 1999, dated 2007)

Assays:
[1] = tested on: protein synthesis in vitro with rabbit reticulocyte lysate; format: biochemical
[2] = tested on: antibody obtained from C430-BSA-immunized mice; assay: CI-ELISA: antisera of C430-BSA-immunized mice on immobilized DONPEP.2 phage; format: binding
Method: The strips were washed and blocked as described for the CD-ELISA. Various concentrations of DON (0 to 10,000 ηg/ml in 1% methanol-PBS), 50 μl/well, was added to the wells, and then 50 μl of anti-DON mAB 6F5 (10 μg/ml in 10% milk-PBS) was added to each well. The wells were incubated at 37° C. for 1 hour. Then the wells were washed six times with PBS-T, and the amounts of bound anti-DON mAB 6F5 were determined by incubation with goat anti-mouse IgG-HRP conjugate (diluted 1:2,000 with 10% milk-PBS) at 37° C. for 1 hour. The amounts of bound enzyme were determined as described above.
Synthetic peptide C430 was conjugated to BSA with a m-maleimidobenzoyl-N-hydroxysulfosuccinimide ester (sulfo-MBS) cross-linker. The C430-BSA conjugate, at a molar ratio of peptide C430 to the carrier protein BSA of about 29:1, was used to inject 7-week-old BALB/c female mice intraperitoneally or 6-month-old New Zealand white rabbits subcutaneously. The initial injections used for the mice contained 100 to 200 μg of C430-BSA conjugate in 200 μl of saline-Freund's complete adjuvant (1:1). These injections were followed at 3-week intervals by booster injections consisting of 100 to 200 μg of conjugate in 200 μl of saline-Freund's incomplete adjuvant (1:1). […]

mAB 6F5 [3] = assay: Binding of nivalenol to mAB 6F5; design: species or system mouse
mAB 6F5 [4] = format: binding, mouse; conditions: read-out: 50% inhibitory concentration

Row | Compound | effect on new protein synthesis [1] | new protein synthesis with DON mixed with equimolar C430 [1] | effect on cell viability when combined with DON (mouse bone marrow cells) | effect on viability of bone marrow cells (mouse bone marrow cells) | IC50 ([2]; antiserum after the fourth injection of C430-BSA, FIG. 6, read-out: concentration giving 50% inhibition of antiserum binding to immobilized phage-displayed peptide) | affinity for mAB 6F5 relative to DON (mAB 6F5 [3]) | IC50 (mAB 6F5 [4]) | cell death (mouse bone marrow cells; B6C3F1, mouse) | inhibition of antisera binding to immobilized phage-displayed peptide ([2]; free competitor in solution)
1 | H-SWGPFPFGGGSC-OH [C430, NH2-SWGPFPFGGGSC-COOH] | had no such inhibitory effect | new protein synthesis was not inhibited | did not significantly increase or decrease the cell viability caused by DON | did not have any adverse effect on the viability | 0.39 µM | – | – | – | –
2 | CC1=C[C@H]2O[C@@H]3[C@H](O)[C@@H](O)[C@](C)([C@@]2(CO)[C@H](O)C1=O)[C@]31CO1 [Nivalenol, nivalenol] | – | – | – | – | – | slightly less affinity than DON | – | – | –
3 | CC1=C[C@H]2O[C@@H]3[C@H](O)C[C@](C)([C@@]2(CO)[C@H](O)C1=O)[C@]31CO1 [DON, 12,13-epoxy-3,7,15-trichothec-9-en-8-one, reference compound] | significantly inhibited new protein synthesis | – | – | – | – | – | 3.4 µM | 40-60% | not inhibited by free DON
